Laboratory results taken from patent US11554162B2, “Pharmaceutical or food supplement preparation based on alpha-lactalbumin” (KOLFARMA S.R.L., priority 2018, dated 2023).

Legend:
PTZ-induced seizures = experiment: Anticonvulsant action in the pentylenetetrazol (PTZ) seizure model after 15-day oral pretreatment; assay type: in vivo, C57BL/6 male mice
Experimental: The anticonvulsant action of a preparation according to the invention, consisting of alpha-lactalbumin and sodium butyrate, was evaluated in comparison with that of the single components alpha-lactalbumin and sodium butyrate in the above-mentioned animal model, using the convulsant agent pentylenetetrazol
The experiment was carried out on groups of 10 C57BL/6 male mice (Charles River Italy) for each tested dose (control groups of 10 C57BL/6 male mice were also used).
The animals of all groups were subcutaneously administered pentylenetetrazol (65 mg/kg) at the end of a 15-day pretreatment with sodium butyrate, alpha-lactalbumin, alpha-lactalbumin+sodium butyrate or vehicle, i.e. water (control), respectively.
This pretreatment was carried out by oral administration of a solution of either one of sodium butyrate, alpha-lactalbumin, alpha-lactalbumin+sodium butyrate in the vehicle, consisting of water, and of the vehicle (water) alone.
Firstly, three groups of 10 mice were orally administered 30 mg/day, 100 mg/day and 250 mg/day of sodium butyrate respectively, in the form of an aqueous solution contained in the bottle of the cage, for 15 days. The bottle of the cage of the control group (10 mice) only contained water.
On the 16th day, the animals of the four groups were subcutaneously administered 65 mg/kg of pentylenetetrazol.
Then, three groups of 10 mice were orally administered 125 mg/day, 250 mg/day and 375 mg/day of alpha-lactalbumin respectively, in the form of an aqueous solution contained in the bottle of the cage, for 15 days. The bottle of the cage of the control group (10 mice) only contained water.
On the 16th day, the animals of the four groups were subcutaneously administered 65 mg/kg of pentylenetetrazol (PTZ).
Finally, a first group of 10 mice was orally administered 125 mg alpha-lactalbumin+100 mg sodium butyrate per day, a second group of 10 mice was orally administered 250 mg alpha-lactalbumin+100 mg sodium butyrate per day, a third group of 10 mice was orally administered 375 mg alpha-lactalbumin+100 mg sodium butyrate per day, in the form of an aqueous solution contained in the bottle of the cage, for 15 days. The bottle of the cage of the control group (10 mice) only contained water.

[1] = in vivo; cited from earlier work
audiogenic seizures = experiment: Protection against seizures in experimental models of epilepsy (audiogenic seizures in genetically epilepsy-prone-9 rats); assay type: in vivo; settings: different experimental models of epilepsy; no increase on continuing up to 12 days; not dose dependent
Description: Also the results obtained both in experimental models and in clinical trials confirm the need of repeated administrations for several days.

[2] = test system: seizures induced by acoustic stimulation; settings: after three weeks of treatment; cited from earlier work
[3] = cited from earlier work

For CCCC(=O)[O-].[Na+] [sodium butyrate, reference compound], the “animals that experienced seizures induced by pentylenetetrazol” value (PTZ-induced seizures; sodium butyrate 30, 100 or 250 mg/day oral in drinking water for 15 days, PTZ 65 mg/kg s.c. on day 16, no significant difference from control) was 100% and the “activity towards the seizures induced by pentylenetetrazol” value (PTZ-induced seizures; sodium butyrate alone) was “devoid of any activity”.
For CCCC(=O)O [butyric acid], the cerebral uptake [1] is listed as ~0.006%.
For alpha-lactalbumin, the “days of repeated administrations until protective action against seizures occurs” value (audiogenic seizures) was “at least 6 days”, the “effect on percentage of mice with PTZ-induced seizures” value (PTZ-induced seizures; alpha-lactalbumin 125 mg/day alone, oral for 15 days) was “does not significantly decrease” and the “animals showing PTZ-induced seizures” value (PTZ-induced seizures; alpha-lactalbumin 375 mg/day oral for 15 days, PTZ 65 mg/kg s.c. on day 16) was “less than 40%”. For the same molecule, the “course of percentage of animals with PTZ-induced seizures over dose” value (PTZ-induced seizures; alpha-lactalbumin 125, 250, 375 mg/day oral for 15 days) was “decrease in a dose-dependent fashion”, the “duration of protective effect against seizures after suspension of treatment” value [2] was “at least one month” and the “time after oral administration to demolition into medium-small peptides in the stomach” value [3] was 15 min.
